Laboratory results published in ChEMBL document CHEMBL3044555, “Metabolism of thymol and trans-anethole in larvae of Spodoptera litura and Trichoplusia ni (Lepidoptera: Noctuidae)” (J Agric Food Chem, 2004).

Experiments:
[1] = Drug excretion in 80 last instar Trichoplusia ni (cabbage looper) larvae feces assessed as side chain methyl group hydroxylated compound on at 0.1 % fwt, po by 1H/13C NMR analysis; assay type: ADME, organism-based; conditions: in vivo
[2] = Drug excretion in 80 last instar Trichoplusia ni (cabbage looper) larvae feces assessed as side chain methyl group hydroxylated compound on at 0.1 % fwt, po by TLC analysis; assay type: ADME, organism-based; conditions: in vivo
[3] = Drug excretion in 80 last instar Spodoptera litura larvae feces assessed as side chain methyl group hydroxylated compound on at 0.1 % fwt, po by TLC analysis; assay type: ADME, organism-based; conditions: in vivo
[4] = Drug excretion in 80 last instar Trichoplusia ni (cabbage looper) larvae feces assessed as unchanged parent compound at 0.1 % fwt, po measured after 3 days by 1H/13C NMR analysis; assay type: ADME, organism-based; conditions: in vivo, 72 h
[5] = Drug excretion in 80 last instar Trichoplusia ni (cabbage looper) larvae feces assessed as thymol 3-O-beta-glucoside at 0.1 % fwt, po measured after 3 days by 1H/13C NMR analysis; assay type: ADME, organism-based; conditions: in vivo, 72 h
[6] = Drug excretion in 80 last instar Trichoplusia ni (cabbage looper) larvae feces assessed as thymol 3-O-beta-glucoside at 0.1 % fwt, po measured after 3 days by TLC analysis; assay type: ADME, organism-based; conditions: in vivo, 72 h
[7] = Drug excretion in 80 last instar Spodoptera litura larvae feces assessed as thymol 3-O-beta-glucoside at 0.1 % fwt, po measured after 3 days by TLC analysis; assay type: ADME, organism-based; conditions: in vivo, 72 h
[8] = Drug excretion in 80 last instar Spodoptera litura larvae feces assessed as unchanged parent compound at 0.1 % fwt, po measured after 3 days by 1H/13C analysis; assay type: ADME, organism-based; conditions: in vivo, 72 h
[9] = Drug excretion in 30 last instar Trichoplusia ni (cabbage looper) larvae feces assessed as thymol 3-O-beta-glucoside at 100 ug administered topically on abdominal terga by TLC analysis; assay type: ADME; conditions: in vivo, topical_or_ocular
[10] = Drug excretion in 80 last instar Spodoptera litura larvae feces assessed as thymol 3-O-beta-glucoside at 0.1 % fwt, po measured after 3 days by 1H/13C NMR analysis; assay type: ADME, organism-based; conditions: in vivo, 72 h

| Drug excretion [5] | Drug excretion [6] | Drug excretion [7] | Drug excretion [8] | Drug excretion [9] | Drug excretion [10] | Compound | Drug excretion [1] | Drug excretion [2] | Drug excretion [3] | Drug excretion [4] |
| --- | --- | --- | --- | --- | --- | --- | --- | --- | --- | --- |
| – | – | – | – | – | – | C/C=C/c1ccc(OC)cc1 [ANETHOLE] | Active | 5.8 mg | 5.8 mg | Not Active |
| Active | 3.2 mg | 3.2 mg | Active | Active | Active | Cc1ccc(C(C)C)c(O)c1 [THYMOL] | – | – | – | Active |
